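In this assay, cells in 96-well plates receive the compound at five concentrations for 48 hours. Endpoints are linearly interpolated between the surrounding concentrations. Abbreviation: GI50, concentration required for 50% inhibition of growth.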 Active and inactive are the calls of the source. Rule as the data show it: active = GI50 up to about 1.1 µM and inactive = higher.
Tests used:
Experiment in all cases: growth of human tumour cells (NCI), 48 h
COLO 205 = test system: COLO 205
MDA-MB-435 = test system: MDA-MB-435
CCRF-CEM = test system: CCRF-CEM
SF-268 = test system: SF-268
ACHN = test system: ACHN
BT-549 = test system: BT-549
SF-295 = test system: SF-295
NCI-H23 = test system: NCI-H23
UO-31 = test system: UO-31
OVCAR-5 = test system: OVCAR-5
SK-MEL-28 = test system: SK-MEL-28
SN12C = test system: SN12C
MOLT-4 = test system: MOLT-4
NCI-H226 = test system: NCI-H226
HL-60 = test system: HL-60
786-0 = test system: 786-0
PC-3 = test system: PC-3
HOP-92 = test system: HOP-92
T47D = test system: T47D
A549 = test system: A549

SMILES	GI50 (COLO 205)	GI50 (MDA-MB-435)	GI50 (CCRF-CEM)	GI50 (SF-268)	GI50 (ACHN)	GI50 (BT-549)	GI50 (SF-295)	GI50 (NCI-H23)	GI50 (UO-31)	GI50 (OVCAR-5)	GI50 (SK-MEL-28)	GI50 (SN12C)	GI50 (MOLT-4)	GI50 (NCI-H226)	GI50 (HL-60)	GI50 (786-0)	GI50 (PC-3)	GI50 (HOP-92)	GI50 (T47D)	GI50 (A549)
Cc1cc(/N=C2\C=C(Nc3cc(C)on3)C(=O)c3ccccc32)no1	31.3 µM (inactive)	7.24 µM (inactive)	> 100 µM (inactive)	36.9 µM (inactive)	> 64.3 µM (inactive)	27.5 µM (inactive)	46.5 µM (inactive)	4.69 µM (inactive)	43.7 µM (inactive)	> 76 µM (inactive)	60.5 µM (inactive)	> 80.9 µM (inactive)	> 100 µM (inactive)	> 92 µM (inactive)	> 100 µM (inactive)	38.1 µM (inactive)	> 100 µM (inactive)	19 µM (inactive)	47.3 µM (inactive)	31.2 µM (inactive)
c1c[nH]c(-c2ccc(-c3ccc[nH]3)c3nsnc23)c1	1.53 µM (inactive)	> 48.1 µM (inactive)	15.4 µM (inactive)	> 53.6 µM (inactive)	> 52.6 µM (inactive)	27 µM (inactive)	> 58.1 µM (inactive)	0.0348 µM (active)	> 48.1 µM (inactive)	1.14 µM (inactive)	> 69.5 µM (inactive)	> 54.5 µM (inactive)	> 30.3 µM (inactive)	> 100 µM (inactive)	73.8 µM (inactive)	> 39.1 µM (inactive)	> 41.1 µM (inactive)	31.8 µM (inactive)	0.0336 µM (active)	> 47.5 µM (inactive)
COC(=O)C12OCC34C(CC5C(C)=C(O)C(=O)CC5(C)C3C(O)C1O)OC(=O)C(OC(=O)C=C(C)C)C24 (stereo not given)	> 500 µM (inactive)	< 0.215 µM (active)	307 µM (inactive)	> 500 µM (inactive)	0.247 µM (active)	0.26 µM (active)	> 500 µM (inactive)	> 469 µM (inactive)	> 500 µM (inactive)	> 500 µM (inactive)	423 µM (inactive)	> 500 µM (inactive)	297 µM (inactive)	436 µM (inactive)	498 µM (inactive)	0.275 µM (active)	0.23 µM (active)	234 µM (inactive)	0.0132 µM (active)	> 500 µM (inactive)
CC(C)C1OC23CCCCC2C(C#N)(C#N)C1(C#N)C(=N)O3 (stereo not given)	14.6 µM (inactive)	23.7 µM (inactive)	5.56 µM (inactive)	19.2 µM (inactive)	33.1 µM (inactive)	18.8 µM (inactive)	49.9 µM (inactive)	26.1 µM (inactive)	32.7 µM (inactive)	20.1 µM (inactive)	27.4 µM (inactive)	15.2 µM (inactive)	23.1 µM (inactive)	98.6 µM (inactive)	5.31 µM (inactive)	14.2 µM (inactive)	30.4 µM (inactive)	16.5 µM (inactive)	17.6 µM (inactive)	71.8 µM (inactive)
COC(=O)/C=C/C1(O)C=CC(=O)C=C1	3.4 µM (inactive)	5.13 µM (inactive)	1.77 µM (inactive)	2.22 µM (inactive)	2.1 µM (inactive)	5.27 µM (inactive)	11 µM (inactive)	3.31 µM (inactive)	1.7 µM (inactive)	5.78 µM (inactive)	3.44 µM (inactive)	1.77 µM (inactive)	2.02 µM (inactive)	19.6 µM (inactive)	2.38 µM (inactive)	2.23 µM (inactive)	2.34 µM (inactive)	3.66 µM (inactive)	2.67 µM (inactive)	8.3 µM (inactive)

— ChEMBL document CHEMBL1201862, “PubChem BioAssay data set” (2004)
